# According to PMC10049354, “Anti-Inflammatory Effects and Photo- and Neuro-Protective Properties of BIO203, a New Amide Conjugate of Norbixin, in Development for the Treatment of Age-Related Macular Degeneration (AMD)” (International Journal of Molecular Sciences, 2023):
# What was measured:
# [1] = test system: primary porcine RPE cells; assay: RPE phototoxicity: photoprotection of RPE cells exposed to A2E and blue light; format: cell-based, pig; conditions: A2E 30 μM + blue-light illumination
# Protocol: RPE cells were obtained from pig eyes, as previously described. RPE cells were seeded on a 96-well plate at a density of 1.5 × 10^5 cells/cm^2 in DMEM 2% FCS. BIO201, BIO203, or its pure enantiomers were added in increasing concentrations to the culture medium 48 h before illumination. A2E was added to the medium at a final concentration of 30 μM, and 19 h later, blue-light illumination was performed for 50 min using a 96 blue-led device (Durand, St Clair de la Tour, France) emitting at 470 nm (1440 mcd, 8.6 mA). Just before illumination, the culture medium was replaced by a modified DMEM without any photosensitizer and with 2% FCS. Twenty-four hours after blue-light irradiation, all cell nuclei were stained with Hoechst 33342, and nuclei of dead cells with ethidium homodimer 2, fixed with paraformaldehyde (4% in PBS, 10 min) and 9 pictures per well were captured using a fluorescence microscope (Nikon TiE) equipped with a CoolSNAP HQ2 camera and driven by Metamorph Premier On-Line program. Quantification of live cells was performed using Metamorph Premier Off-Line and a homemade program by subtraction of dead cells from all cells. For cytokines mRNA analysis, RPE cells were seeded in 24-well plates and left untreated or treated with A2E or BIO203 alone or A2E plus BIO203. After 48 h, cells were lysed using the lysis buffer from the NucleoSpin® RNA kit, and the samples were stored at −80 °C.
# [2] = test system: albino rats exposed to blue-light-induced photoreceptor degeneration; assay: Blue-light damage (BLD) study in albino rats: retinal histology (photoreceptor layers); format: in vivo, rat; conditions: for preservation of retinal structure (photoreceptor layers): four IP administrations, 6 h blue-light exposure
# Protocol: At the end of the measurement period on Day 7, rats were euthanized by an intraperitoneal injection of pentobarbital. Immediately after euthanasia, both eyeballs were sampled, fixed in Davidson’s solution, and processed for histology. Sections (5 to 7 µm thick) were performed along the vertical meridian and stained with Haematoxylin/Eosin stain. The vertical meridian included the optic nerve. […] The thickness of the outer nuclear layer was measured on each point. […] Histology and photoreceptor counting in mice were performed as previously described.
# Sixty-four animals were selected based on good health and on scotopic electroretinogram performed before induction when the A-wave amplitude of both eyes was in the range of the global mean (all animals) of A-wave amplitude ± 1.96 SD. Animals were then randomized into the study groups using a macro function in Excel® software based on the A-wave amplitude of both eyes (mean value). On Day 0, BIO203, negative controls, and comparator (N-tert-Butyl-a-phenylnitrone (PBN)) were intraperitoneally injected using a 25 G needle in rats that have been dark-adapted for 36 h. Individually housed rats were then exposed for 6 h (±5 min) to a continuous blue, fluorescent light (400–540 nm) in clear plastic cages. After exposure and administration, the rats were placed in a dark room for 24 h (±1 h) and then were returned to rearing cyclic light conditions.
# [3] = Powder stability at RT, 4 °C and −20 °C for up to 18 months (LC-MS/MS); format: physicochemical; conditions: for loss of the compound: 4 °C
# Protocol: The potential breakdown of BIO203 compared to BIO201 was assessed every three months in samples stored for up to 18 months at room temperature, 4 °C, and −20 °C. On the day of analysis, weighted samples of BIO203 and norbixin powder were solubilized in DMSO at 10 mg/mL final concentration. DMSO solutions were further diluted 400-fold before performing LC-MS/MS analysis which was performed on an LC 1260 System coupled with Mass Spectrometer QQQ-6420 with DAD (Supplier Agilent Technologies). BIO201 and BIO203 were eluted from a reverse-phase column (2.1 mm × 50 mm; 5 μm particles; Fortis C18) with the following gradient of acetonitrile in water (both containing 0.1% formic acid): 10 to 100% in 10 min), (flow-rate: 0.3 mL/min), (UV detection A: 460 nm, B: 254 nm, DAD: 210–500 nm), (MS scan+: 50 to 800 Frag 120 CAV 5, MS scan-: 50 to 800 Frag 120 CAV 5). The AUC value was used to determine the stability of each compound.
# [4] = Acute ocular PK in rats following a single IP administration; format: in vivo, rat; conditions: for intraocular AUC / intraocular Cmax / time of intraocular Cmax post-administration: norbixin 10 mg/kg, BIO203 8.8 mg/kg
# Protocol: The compounds were administered to 8–9 months-old Male Sprague-Dawley rats (n = 3 per group and per collection time) by the intraperitoneal route in vehicle (DMSO/NaCl/NaOH for BIO203 and PBS/Tween 80 (95/5) for norbixin) with an administration volume of 10 mL/kg. The solutions of BIO203 and norbixin were centrifuged, and the clear supernatants were administered to rats. The final injected concentrations were 10 mg/kg and 8.8 mg/kg for norbixin and BIO203, respectively. Doses administered differ because BIO201 and BIO203 solubility are not equivalent in their respective vehicles, and the dose of BIO203 was reduced to avoid toxicity of DMSO present in the vehicle, but the same volumes were injected into animals. Eyes were collected post-administration according to the following timing: 0, 0.08 h, 0.25 h, 0.5 h, 1 h, 1.5 h, 2 h, 4 h, 8 h, and 24 h. After euthanasia, the two eyes of each rat were collected in a Precellys tube, frozen, and stored at −80 °C.
# Analysis was performed on an LC 1260 System coupled with Mass Spectrometer QQQ-6420 with DAD (Agilent Technologies). Norbixin and BIO203 were eluted from a reverse-phase column (2.1 × 50 mm; 3 μm particles; Ace Excel C18) with the following gradient of acetonitrile in water (both containing 0.1% formic acid): 55 to 100% in 5 min), (flowrate: 0.3 mL/min). […] were monitored by a mass spectrometer, in positive MRM mode, with the following transitions, respectively, 381.1 -> 144.9 and 478.1 -> 362.9. For quantification of BIO201 and BIO203, calibration curves were prepared under the same conditions as the sample matrix, with various amounts of BIO201 or BIO203 (25 to 10,000 ng/mL in plasma and 5 to 500 ng/mL for eyes).
# For determination of concentrations of BIO201 or BIO203 in ocular tissues, each eye was homogenized in CHCl3/MeOH (1:1, v/v) (0.5 mL) with a homogenizer (Precellys-24) during 2 cycles (30 s) at 6500 rpm. The internal standard (retinoic acid at 10 µg/mL) was added, and the organic layer was extracted. The homogenate was then extracted two times with CHCl3/CH2Cl2 (0.5 mL). The combined organic extracts were dried in vacuo without heating (EZ2, Genevac Ltd., Ipswich, UK). Then they were dissolved in 100 μL DMSO/MeOH (1:1, v/v) and transferred to microtiter plates for LC-MS/MS analysis.
compound,measurement,setting,value
COC1CCCN(C(=O)/C=C/C(C)=C/C=C/C(C)=C/C=C/C=C(C)/C=C/C=C(C)\C=C\C(=O)O)C1 (stereo not shown) [BIO203],concentration from which protective effect was observed,[1],≥ 10 µM
same,concentration of maximum efficacy / highest protection,[1],15 µM
same,preservation of retinal structure (photoreceptor layers),[2]; 5 mg/kg,did not observe neuroprotection
same,preservation of retinal structure (photoreceptor layers),[2]; 10 mg/kg,did not observe neuroprotection
same,preservation of retinal structure (photoreceptor layers),"[2]; 25 mg/kg, p < 0.0001",partially preserved the retinal structure
same,neuroprotective effect compared to vehicle (preliminary experiment),"[2]; BIO203 at 2.5 mg/mL (so in the source), IP, rat BLD",limited neuroprotective effect
same,stability,"[3]; RT, +4 °C and −20 °C, 18 months",stable at all temperatures tested for at least 18 months
same,ocular AUC increase compared to BIO201,[4]; discussion summary,> 200 fold
same,ocular Cmax increase compared to BIO201,[4]; discussion summary,more than 10 fold
same,concentration at 24 h,"[4]; male, Sprague-Dawley, 8.8 mg/kg, rat eye, single IP, 24 h, read-out: remaining intraocular concentration at 24 h",~2 ng/mL
same,intraocular AUC of BIO203 relative to norbixin,"[4]; rat eye, single IP",approximately 280 times
same,intraocular AUC,"[4]; rat eye, single IP",704.1 ng·h/eye
same,intraocular Cmax,"[4]; rat eye, single IP",133.1 ng/eye
same,time of intraocular Cmax post-administration,"[4]; rat eye, single IP",1 h
"CC(=C/C=C/C(C)=C/C=C/C=C(C)/C=C/C=C(C)/C=C/C(=O)O)/C=C/C(=O)O [norbixin, 9′-cis-norbixin]",survival of RPE cells,[1]; 20 μM compound,more than 80%
same,concentration of maximum efficacy / highest protection,[1],20 µM
same,preservation of retinal structure (photoreceptor layers),"[2]; 50 mg/kg, p < 0.0001",partially preserved the retinal structure
same,loss of the compound,[3]; 3 months,10%
same,loss of the compound,[3]; 6 months,−20.8%
same,loss of the compound,[3]; 12 months,−66.4%
same,left of the initial quantity,"[3]; RT, 3 months",41%
same,left of the initial quantity,"[3]; RT, stabilized between 12 and 18 months",22.1%
same,loss of compound,"[3]; −20 °C, after one year",−18.1%
same,stability,"[3]; −20 °C, up to 6 months",appeared stable
same,remaining intraocular concentration at 24 h,"[4]; rat eye, single IP, 24 h",no longer detectable
same,intraocular AUC,"[4]; rat eye, single IP",2.5 ng·h/eye
same,intraocular Cmax,"[4]; rat eye, single IP",less than 8.5 ng/eye
same,time of intraocular Cmax post-administration,"[4]; rat eye, single IP",0.25 h
